Results from ChEMBL document CHEMBL1201862, “PubChem BioAssay data set” (2004).
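Compound exposure: 48 hours, 5 concentrations, 96-well plates. Here, GI50 denotes the concentration required for 50% inhibition of growth.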 Activity calls are given as the source filed them. Rule as the data show it: active = GI50 up to about 1.1 µM and inactive = higher.

Experiments:
Test in all cases: NCI tumour cell line growth inhibition, 48 h
[1] = test system: 786-0
[2] = test system: A498
[3] = test system: A549
[4] = test system: ACHN
[5] = test system: BT-549
[6] = test system: CAKI-1
[7] = test system: CCRF-CEM
[8] = test system: COLO 205
[9] = test system: EKVX
[10] = test system: HCC 2998
[11] = test system: HCT-116
[12] = test system: HCT-15
[13] = test system: HL-60
[14] = test system: HOP-62
[15] = test system: HOP-92
[16] = test system: HT-29
[17] = test system: Hs-578T
[18] = test system: IGROV-1
[19] = test system: K562
[20] = test system: KM12
[21] = test system: LOX IMVI
[22] = test system: M14
[23] = test system: MCF7
[24] = test system: MDA-MB-231
[25] = test system: MDA-MB-435
[26] = test system: MDA-N
[27] = test system: MOLT-4
[28] = test system: Malme-3M
[29] = test system: NCI-H226
[30] = test system: NCI-H460
[31] = test system: NCI-H522
[32] = test system: NCI/ADR-RES
[33] = test system: OVCAR-4
[34] = test system: OVCAR-5
[35] = test system: OVCAR-8
[36] = test system: PC-3
[37] = test system: RPMI-8226
[38] = test system: RXF 393
[39] = test system: SF-268
[40] = test system: SF-295
[41] = test system: SF-539
[42] = test system: SK-MEL-28
[43] = test system: SK-MEL-2
[44] = test system: SK-MEL-5
[45] = test system: SK-OV-3
[46] = test system: SN12C
[47] = test system: SNB-19
[48] = test system: SNB-75
[49] = test system: SW-620
[50] = test system: TK-10
[51] = test system: U-251
[52] = test system: UACC-257
[53] = test system: UACC-62
[54] = test system: DU-145
[55] = test system: NCI-H23
[56] = test system: OVCAR-3
[57] = test system: T47D
[58] = test system: UO-31
[59] = test system: SR

## COc1cccc(NC(=O)c2c(N)n[nH]c2SC)c1
[1]
  GI50: > 100 µM (inactive)
[2]
  GI50: > 100 µM (inactive)
[3]
  GI50: > 100 µM (inactive)
[4]
  GI50: > 100 µM (inactive)
[5]
  GI50: > 100 µM (inactive)
[6]
  GI50: > 100 µM (inactive)
[7]
  GI50: > 100 µM (inactive)
[8]
  GI50: > 100 µM (inactive)
[9]
  GI50: > 100 µM (inactive)
[10]
  GI50: > 100 µM (inactive)
[11]
  GI50: > 100 µM (inactive)
[12]
  GI50: > 100 µM
[13]
  GI50: > 100 µM (inactive)
[14]
  GI50: > 100 µM (inactive)
[15]
  GI50: > 100 µM (inactive)
[16]
  GI50: > 100 µM (inactive)
[17]
  GI50: > 100 µM (inactive)
[18]
  GI50: > 100 µM (inactive)
[19]
  GI50: > 100 µM (inactive)
[20]
  GI50: > 100 µM (inactive)
[21]
  GI50: > 100 µM (inactive)
[22]
  GI50: > 100 µM (inactive)
[23]
  GI50: > 100 µM (inactive)
[24]
  GI50: > 100 µM (inactive)
[25]
  GI50: > 100 µM (inactive)
[26]
  GI50: > 100 µM (inactive)
[27]
  GI50: > 100 µM (inactive)
[28]
  GI50: > 100 µM (inactive)
[29]
  GI50: > 100 µM (inactive)
[30]
  GI50: > 100 µM (inactive)
[31]
  GI50: > 100 µM (inactive)
[32]
  GI50: > 100 µM (inactive)
[33]
  GI50: > 100 µM (inactive)
[34]
  GI50: > 100 µM (inactive)
[35]
  GI50: > 100 µM (inactive)
[36]
  GI50: > 100 µM (inactive)
[37]
  GI50: 84.9 µM (inactive)
[38]
  GI50: > 100 µM (inactive)
[39]
  GI50: > 100 µM (inactive)
[40]
  GI50: > 100 µM (inactive)
[41]
  GI50: > 100 µM (inactive)
[42]
  GI50: > 100 µM (inactive)
[43]
  GI50: > 100 µM (inactive)
[44]
  GI50: > 100 µM (inactive)
[45]
  GI50: > 100 µM (inactive)
[46]
  GI50: > 100 µM (inactive)
[47]
  GI50: > 100 µM (inactive)
[48]
  GI50: > 100 µM (inactive)
[49]
  GI50: > 100 µM (inactive)
[50]
  GI50: > 100 µM (inactive)
[51]
  GI50: > 100 µM (inactive)
[52]
  GI50: > 100 µM (inactive)
[53]
  GI50: > 100 µM (inactive)

## Clc1ccc(-c2cc(-c3cc(-c4ccc(Cl)cc4)[nH]n3)[nH]n2)cc1
[2]
  GI50: > 100 µM (inactive)
[4]
  GI50: > 100 µM (inactive)
[5]
  GI50: > 100 µM (inactive)
[8]
  GI50: > 100 µM (inactive)
[54]
  GI50: > 100 µM (inactive)
[9]
  GI50: > 100 µM (inactive)
[11]
  GI50: > 100 µM (inactive)
[18]
  GI50: > 100 µM (inactive)
[19]
  GI50: > 100 µM (inactive)
[22]
  GI50: > 100 µM (inactive)
[25]
  GI50: > 100 µM (inactive)
[26]
  GI50: > 100 µM (inactive)
[27]
  GI50: > 100 µM (inactive)
[28]
  GI50: > 100 µM (inactive)
[29]
  GI50: > 100 µM (inactive)
[55]
  GI50: > 100 µM (inactive)
[31]
  GI50: > 100 µM (inactive)
[56]
  GI50: > 100 µM (inactive)
[34]
  GI50: > 100 µM (inactive)
[36]
  GI50: > 100 µM (inactive)
[38]
  GI50: > 100 µM (inactive)
[43]
  GI50: > 100 µM (inactive)
[44]
  GI50: > 100 µM (inactive)
[45]
  GI50: > 100 µM (inactive)
[57]
  GI50: > 100 µM (inactive)
[52]
  GI50: > 100 µM (inactive)
[58]
  GI50: > 100 µM (inactive)

## Cc1cc(C)c(S(=O)(=O)N2CCCN(S(=O)(=O)c3c(C)cc(C)cc3C)OCCCON(S(=O)(=O)c3c(C)cc(C)cc3C)CCCN(S(=O)(=O)c3c(C)cc(C)cc3C)OCCCO2)c(C)c1
[1]
  GI50: > 100 µM (inactive)
[3]
  GI50: > 100 µM (inactive)
[4]
  GI50: > 100 µM (inactive)
[5]
  GI50: > 100 µM (inactive)
[6]
  GI50: > 100 µM (inactive)
[7]
  GI50: > 100 µM (inactive)
[8]
  GI50: > 100 µM (inactive)
[54]
  GI50: > 100 µM (inactive)
[9]
  GI50: > 100 µM (inactive)
[10]
  GI50: > 100 µM (inactive)
[11]
  GI50: > 100 µM (inactive)
[12]
  GI50: > 100 µM
[13]
  GI50: 46.6 µM (inactive)
[14]
  GI50: > 100 µM (inactive)
[15]
  GI50: 36.1 µM (inactive)
[16]
  GI50: > 100 µM (inactive)
[17]
  GI50: 51.8 µM (inactive)
[18]
  GI50: > 100 µM (inactive)
[19]
  GI50: > 100 µM (inactive)
[20]
  GI50: > 100 µM (inactive)
[21]
  GI50: > 100 µM (inactive)
[22]
  GI50: > 100 µM (inactive)
[23]
  GI50: > 100 µM (inactive)
[24]
  GI50: > 100 µM (inactive)
[25]
  GI50: > 100 µM (inactive)
[26]
  GI50: > 100 µM (inactive)
[27]
  GI50: > 100 µM (inactive)
[28]
  GI50: > 100 µM (inactive)
[29]
  GI50: > 100 µM (inactive)
[55]
  GI50: > 100 µM (inactive)
[30]
  GI50: > 100 µM (inactive)
[31]
  GI50: > 100 µM (inactive)
[32]
  GI50: > 100 µM (inactive)
[56]
  GI50: > 100 µM (inactive)
[33]
  GI50: > 100 µM (inactive)
[34]
  GI50: > 100 µM (inactive)
[35]
  GI50: > 100 µM (inactive)
[36]
  GI50: > 100 µM (inactive)
[37]
  GI50: 67.3 µM (inactive)
[38]
  GI50: 61.1 µM (inactive)
[39]
  GI50: > 100 µM (inactive)
[40]
  GI50: > 100 µM (inactive)
[41]
  GI50: > 100 µM (inactive)
[42]
  GI50: > 100 µM (inactive)
[43]
  GI50: > 100 µM (inactive)
[44]
  GI50: > 100 µM (inactive)
[45]
  GI50: > 100 µM (inactive)
[47]
  GI50: > 100 µM (inactive)
[48]
  GI50: 70.3 µM (inactive)
[59]
  GI50: > 100 µM (inactive)
[49]
  GI50: > 100 µM (inactive)
[50]
  GI50: > 100 µM (inactive)
[51]
  GI50: > 100 µM (inactive)
[52]
  GI50: > 100 µM (inactive)
[53]
  GI50: > 100 µM (inactive)
[58]
  GI50: > 100 µM (inactive)
